Laboratory results as given in US8598146B2, “Methods for identifying modulators of protein kinase C-epsilon (PKCε) and method of treatment of aberrant glucose metabolism associated therewith” (Garvan Institute of Medical Research, priority 2003, dated 2013).

Columns and labels:
[1] = test system: pancreatic islets; experiment: glucose-stimulated insulin secretion from pancreatic islets with carbamylcholine (FIG. 13); assay type: cell-based, mouse; details: 0.1 mM carbamylcholine with 20 mM glucose; islets from wild type and PKCε−/− mice
[2] = test system: pancreatic beta cells; details: 100 nM glyburide in the presence of 20 mM glucose; cited from earlier work

Compound	glucose-stimulated insulin secretion [1]	insulin secretion [2]
C[N+](C)(C)CCOC(N)=O.[Cl-] [carbamylcholine]	potentiation	
COc1ccc(Cl)cc1C(=O)NCCc1ccc(S(=O)(=O)NC(=O)NC2CCCCC2)cc1 [glyburide]		enhances insulin secretion
